Reference: article PMC11532494 (Nature Communications, 2024)
Values joined by “and” are separate entries in the source; they are usually repeats but may differ in a detail not shown here. Identical values can stand only once. Like-named read-outs stand apart in the source and are kept apart here.

Key:
PA1409 = PA1409 (Pseudomonas aeruginosa, UniProt Q9I3T5); experiment: Acetyl-polyamine deacetylase assay (positive control); assay type: biochemical; conditions: for acetate released, g/l / acetate released, mM / mM normalized to enzyme concentration: PA1409 (positive control enzyme), single samples (replicates); for A1-A2: absorbance difference between the two time points; for A1-A2 / (A1-A2)-B: sheet Figure 2d; for (A1-A2)-B: absorbance difference minus mean blank
BsAcuC (2c) = molecular target: T1, BsAcuC (2c) (Bacillus subtilis, UniProt P39067); experiment: Acetyl-polyamine deacetylase assay; assay type: biochemical; conditions: BsAcuC (2c) 3µM; single samples (replicates)
T1 construct: made in house; host or cells: E. coli BL21 (DE3)
T1 sequence (P39067 1-387): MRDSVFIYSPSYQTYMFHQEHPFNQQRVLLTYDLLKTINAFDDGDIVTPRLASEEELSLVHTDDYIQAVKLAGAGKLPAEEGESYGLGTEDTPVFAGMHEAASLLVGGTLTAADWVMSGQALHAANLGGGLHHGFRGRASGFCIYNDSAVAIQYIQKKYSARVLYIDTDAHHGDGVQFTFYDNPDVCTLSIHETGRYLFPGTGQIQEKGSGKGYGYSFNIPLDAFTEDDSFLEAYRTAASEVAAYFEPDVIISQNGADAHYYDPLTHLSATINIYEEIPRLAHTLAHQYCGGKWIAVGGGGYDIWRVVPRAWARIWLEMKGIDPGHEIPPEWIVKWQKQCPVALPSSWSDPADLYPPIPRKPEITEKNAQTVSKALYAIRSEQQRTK

RwDmhA (1b) = RwDmhA (1b) (Rhizorhabdus wittichii, UniProt A0A067XIQ6); assay type: biochemical; conditions: RwDmhA (1b) 3µM; single samples (replicates)
RsPrpH (1b) = experiment: Acetyl-polyamine deacetylase assay; assay type: biochemical, Rhizorhabdus sp.; conditions: RsPrpH 3µM; single samples (replicates)
VcHdaH (5b) = experiment: Acetyl-polyamine deacetylase assay; assay type: biochemical, Vibrio cholerae; conditions: VcHdaH (5b) 6µM; single samples (replicates)
LpApaH (3) = LpApaH (3) (Legionella pneumophila, UniProt A0A2S6EWV0); assay type: biochemical
KpHdaH (1b) = KpHdaH (1b) (Klebsiella pneumoniae, UniProt A0A377Z5F6); assay type: biochemical; conditions: KpKDAC (1b); single samples (replicates)
PsApaH (4) = PsApaH (4) (Pseudomonas sp. M30-35, UniProt A0A1Y0KY79); experiment: Acetyl-polyamine deacetylase assay; assay type: biochemical; conditions: single samples (replicates)
VsHdaH (1b) = assay type: biochemical, Vibrio sp.; conditions: VsHdaH (1b) 3µM; single samples (replicates)
LcApaH (3) = LcApaH (3) (Legionella cherrii, UniProt A0A0W0SGS1); assay type: biochemical
[1] = LcApaH (3), single samples (replicates)

Chain of LpApaH (3) (A0A2S6EWV0 1-426): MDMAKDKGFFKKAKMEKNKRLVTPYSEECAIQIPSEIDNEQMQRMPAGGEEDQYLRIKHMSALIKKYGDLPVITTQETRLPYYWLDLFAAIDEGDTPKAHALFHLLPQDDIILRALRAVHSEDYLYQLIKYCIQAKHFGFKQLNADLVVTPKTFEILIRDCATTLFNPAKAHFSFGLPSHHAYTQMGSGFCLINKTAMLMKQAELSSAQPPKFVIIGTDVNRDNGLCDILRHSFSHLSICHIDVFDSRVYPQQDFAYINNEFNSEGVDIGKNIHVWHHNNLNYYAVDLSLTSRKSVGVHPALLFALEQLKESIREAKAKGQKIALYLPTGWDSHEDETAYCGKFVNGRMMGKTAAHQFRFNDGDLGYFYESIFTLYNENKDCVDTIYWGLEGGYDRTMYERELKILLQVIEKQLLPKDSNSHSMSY
Chain of LcApaH (3) (A0A0W0SGS1 1-425): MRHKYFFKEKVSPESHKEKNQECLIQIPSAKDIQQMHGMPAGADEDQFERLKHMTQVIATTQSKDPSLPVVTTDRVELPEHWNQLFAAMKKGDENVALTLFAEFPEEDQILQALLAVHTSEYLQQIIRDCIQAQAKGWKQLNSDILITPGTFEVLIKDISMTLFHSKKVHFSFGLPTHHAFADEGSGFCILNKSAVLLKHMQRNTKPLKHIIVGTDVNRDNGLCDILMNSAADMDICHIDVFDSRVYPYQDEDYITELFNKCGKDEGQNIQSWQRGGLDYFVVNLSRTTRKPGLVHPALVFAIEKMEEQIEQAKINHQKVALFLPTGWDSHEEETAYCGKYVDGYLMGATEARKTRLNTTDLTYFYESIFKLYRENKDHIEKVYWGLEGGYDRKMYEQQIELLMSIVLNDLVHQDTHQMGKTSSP
Chain of RwDmhA (1b) (A0A067XIQ6 1-369): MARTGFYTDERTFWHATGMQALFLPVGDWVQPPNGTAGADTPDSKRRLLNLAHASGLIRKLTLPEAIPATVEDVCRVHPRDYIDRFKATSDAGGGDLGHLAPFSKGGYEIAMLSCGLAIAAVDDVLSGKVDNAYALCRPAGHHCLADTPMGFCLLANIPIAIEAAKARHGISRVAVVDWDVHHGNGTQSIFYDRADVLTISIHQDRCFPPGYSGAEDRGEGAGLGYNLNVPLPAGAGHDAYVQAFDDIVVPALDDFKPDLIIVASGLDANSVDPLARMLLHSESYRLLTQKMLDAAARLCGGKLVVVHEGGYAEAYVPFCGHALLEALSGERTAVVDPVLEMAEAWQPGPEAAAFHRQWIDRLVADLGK
Chain of PsApaH (4) (A0A1Y0KY79 1-342 limits assumed): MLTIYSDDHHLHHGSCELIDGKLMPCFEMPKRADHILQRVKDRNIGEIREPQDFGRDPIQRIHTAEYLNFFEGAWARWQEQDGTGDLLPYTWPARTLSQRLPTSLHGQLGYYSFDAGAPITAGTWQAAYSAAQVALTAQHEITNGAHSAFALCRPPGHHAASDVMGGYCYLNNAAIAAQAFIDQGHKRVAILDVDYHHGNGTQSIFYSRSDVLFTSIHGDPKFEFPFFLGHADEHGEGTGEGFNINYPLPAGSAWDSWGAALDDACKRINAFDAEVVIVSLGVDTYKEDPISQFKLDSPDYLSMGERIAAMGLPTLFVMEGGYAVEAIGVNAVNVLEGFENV
Chain of KpHdaH (1b) (A0A377Z5F6 1-371): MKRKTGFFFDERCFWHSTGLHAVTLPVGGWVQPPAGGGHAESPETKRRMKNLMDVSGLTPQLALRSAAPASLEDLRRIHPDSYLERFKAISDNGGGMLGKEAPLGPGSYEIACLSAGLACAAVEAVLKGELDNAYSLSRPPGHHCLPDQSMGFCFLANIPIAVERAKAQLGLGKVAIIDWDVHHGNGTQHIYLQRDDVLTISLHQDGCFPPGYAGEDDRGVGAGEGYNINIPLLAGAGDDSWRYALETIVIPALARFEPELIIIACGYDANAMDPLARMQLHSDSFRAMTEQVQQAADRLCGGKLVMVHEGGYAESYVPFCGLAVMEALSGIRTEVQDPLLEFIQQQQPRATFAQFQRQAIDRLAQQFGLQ
Chain of PA1409 (Q9I3T5 whole entry): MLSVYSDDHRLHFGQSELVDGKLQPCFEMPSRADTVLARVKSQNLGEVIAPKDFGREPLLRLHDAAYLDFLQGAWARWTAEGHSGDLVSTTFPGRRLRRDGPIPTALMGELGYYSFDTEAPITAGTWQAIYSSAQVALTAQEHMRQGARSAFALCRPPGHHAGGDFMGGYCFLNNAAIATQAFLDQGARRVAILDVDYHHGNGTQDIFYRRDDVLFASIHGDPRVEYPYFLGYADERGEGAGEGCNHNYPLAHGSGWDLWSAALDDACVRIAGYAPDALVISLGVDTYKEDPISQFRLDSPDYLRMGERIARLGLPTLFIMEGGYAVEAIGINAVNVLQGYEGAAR

Row | Structure (SMILES) | acetate released, g/l (PA1409) | acetate released, mM (PA1409) | acetate released, g/l (BsAcuC (2c)) | acetate released, mM (BsAcuC (2c)) | mM normalized to enzyme concentration (BsAcuC (2c)) | acetate released, g/l (RwDmhA (1b)) | acetate released, mM (RwDmhA (1b)) | mM normalized to enzyme concentration (RwDmhA (1b)) | acetate released, g/l (RsPrpH (1b)) | acetate released, mM (RsPrpH (1b)) | mM normalized to enzyme concentration (RsPrpH (1b)) | acetate released, g/l (VcHdaH (5b)) | acetate released, mM (VcHdaH (5b)) | mM normalized to enzyme concentration (VcHdaH (5b)) | acetate released, g/l (KpHdaH (1b)) | acetate released, mM (KpHdaH (1b)) | mM normalized to enzyme concentration (KpHdaH (1b)) | acetate released, g/l (VsHdaH (1b)) | acetate released, mM (VsHdaH (1b)) | mM normalized to enzyme concentration (VsHdaH (1b)) | also measured
1 | CC(=O)NCCCCCN [N1-acetyl-cadaverine] | 0.1346 g/L | 2.242 mM | 0.0001305 g/L and -0.0003916 g/L and -0.01371 g/L | 0.002174 mM and -0.006522 mM and -0.2283 mM | 0.0007246 mM and -0.002174 mM and -0.07609 mM | 0.01449 g/L and 0.01841 g/L and 0.0252 g/L | 0.2413 mM and 0.3065 mM and 0.4196 mM | 0.08044 mM and 0.1022 mM and 0.1399 mM | 0.02441 g/L and 0.02154 g/L and 0.02285 g/L | 0.4065 mM and 0.3587 mM and 0.3804 mM | 0.1355 mM and 0.1196 mM and 0.1268 mM | 0.0009138 g/L and -0.0001305 g/L and 0.0003916 g/L | 0.01522 mM and -0.002174 mM and 0.006522 mM | 0.002536 mM and -0.0003623 mM and 0.001087 mM | 0.005 g/L and 0.003 g/L and 0.002 g/L | 0.0755 mM and 0.044 mM and 0.0346 mM | 0.0151 mM and 0.0088 mM and 0.00692 mM | 0.004047 g/L and 0.005091 g/L and 0.00483 g/L | 0.06739 mM and 0.08478 mM and 0.08044 mM | 0.02246 mM and 0.02826 mM and 0.02681 mM | mM normalized to enzyme concentration (PA1409): 22.4156 mM; A1-A2 (PA1409): 0.543; (A1-A2)-B (PA1409): 0.5015; acetate released, g/l (LpApaH (3)): 0.0236 g/L and 0.04 g/L; acetate released, mM (LpApaH (3)): 0.39 mM and 0.70 mM; mM normalized to enzyme concentration (LpApaH (3)): 0.20 mM and 0.35 mM; acetate released, g/l (PsApaH (4)): 0.08943 g/L and 0.09204 g/L and 0.09674 g/L; acetate released, mM (PsApaH (4)): 1.489 mM and 1.533 mM and 1.611 mM; acetate released, g/l (LcApaH (3); [1]): 0.0133 g/L and 0.011 g/L; acetate released, mM (LcApaH (3); [1]): 0.22 mM and 0.18 mM; mM normalized to enzyme concentration (LcApaH (3); [1]): 0.22 mM and 0.18 mM
2 | CC(=O)NCCCCN [N1-acetyl-putrescine] |  |  | 0.001436 g/L and 0.00248 g/L and -0.003264 g/L | 0.02391 mM and 0.0413 mM and -0.05435 mM | 0.007971 mM and 0.01377 mM and -0.01812 mM | 0.001436 g/L and 0.006919 g/L and 0.0009138 g/L | 0.02391 mM and 0.1152 mM and 0.01522 mM | 0.007971 mM and 0.03841 mM and 0.005072 mM | 0.003525 g/L and 0.00483 g/L and 0.003003 g/L | 0.0587 mM and 0.08044 mM and 0.05 mM | 0.01957 mM and 0.02681 mM and 0.01667 mM | -0.003786 g/L and 0.0001305 g/L and 0.01136 g/L | -0.06304 mM and 0.002174 mM and 0.1891 mM | -0.01051 mM and 0.0003623 mM and 0.03152 mM | 0.01615 g/L and 0.02135 g/L and 0.02198 g/L | 0.2105 mM and 0.2784 mM and 0.2865 mM | 0.02105 mM and 0.02784 mM and 0.02865 mM | 0.001436 g/L and 0.0003916 g/L and -0.0006527 g/L | 0.02391 mM and 0.006522 mM and -0.01087 mM | 0.007971 mM and 0.002174 mM and -0.003623 mM | A1-A2 (PA1409): 0.278 and 0.275; (A1-A2)-B (PA1409): 0.21 and 0.207; acetate released, g/l (LcApaH (3)): 0.002824 g/L and 0.001479 g/L; acetate released, mM (LcApaH (3)): 0.04702 mM and 0.02463 mM; mM normalized to enzyme concentration (LcApaH (3)): 0.03135 mM and 0.01642 mM
3 | CC(=O)NCCCNCCCCN [N1-acetyl-spermidine] |  |  | 0.001175 g/L and 0.0003916 g/L | 0.01957 mM and 0.006522 mM | 0.006522 mM and 0.002174 mM | -0.0001305 g/L and -0.0003916 g/L | -0.002174 mM and -0.006522 mM | -0.0007246 mM and -0.002174 mM | 0.0006527 g/L and 0.002219 g/L | 0.01087 mM and 0.03696 mM | 0.003623 mM and 0.01232 mM | -0.0009138 g/L and 0.0001305 g/L | -0.01522 mM and 0.002174 mM | -0.002536 mM and 0.0003623 mM | 0.007111 g/L and 0.006667 g/L |  | 0.02368 mM and 0.0222 mM | -0.0001305 g/L | -0.002174 mM | -0.0007246 mM | A1-A2 (PA1409): 0.377 and 0.374; (A1-A2)-B (PA1409): 0.331 and 0.328; acetate released, g/l (PsApaH (4)): 0.0007937 g/L and 0.001587 g/L; acetate released, mM (PsApaH (4)): 0.01322 mM and 0.02643 mM
4 | CC(=O)NCCCNCCCCNCCCN [N1-acetyl-spermine] | 0.1471 g/L and 0.1516 g/L | 2.449 mM and 2.524 mM | 0.002742 g/L and 0.0001305 g/L | 0.04565 mM and 0.002174 mM | 0.01522 mM and 0.0007246 mM | 0.0001305 g/L | 0.002174 mM and -0.002174 mM | -0.01812 mM and 0.0007246 mM and -0.0007246 mM | -0.0006527 g/L and -0.0001305 g/L and -0.004569 g/L | -0.01087 mM and -0.002174 mM and -0.07609 mM | -0.003623 mM and -0.0007246 mM and -0.02536 mM | -0.0009138 g/L and -0.003003 g/L and -0.003264 g/L | -0.01522 mM and -0.05 mM and -0.05435 mM | -0.002536 mM and -0.008333 mM and -0.009058 mM | 0.02153 g/L and 0.02371 g/L and 0.03188 g/L | 0.3585 mM and 0.3948 mM and 0.5309 mM | 0.07169 mM and 0.07895 mM and 0.1062 mM | -0.003525 g/L and 0.003264 g/L and 0.003525 g/L | -0.0587 mM and 0.05435 mM and 0.0587 mM | -0.01957 mM and 0.01812 mM and 0.01957 mM | mM normalized to enzyme concentration (PA1409): 24.4938 mM and 25.2427 mM
5 | CC(=O)NCCCNCCCCNCCCNC(C)=O [N1/N12 diacetyl-spermine] | 0.2048 g/L and 0.2032 g/L | 3.41 mM and 3.383 mM | 0.003525 g/L and 0.003264 g/L and -0.001436 g/L | 0.0587 mM and 0.05435 mM and -0.02391 mM | 0.01957 mM and 0.01812 mM and -0.007971 mM | 0.001697 g/L and 0.004569 g/L | 0.02826 mM and 0.07609 mM | 0.00942 mM and 0.02536 mM | 0.002219 g/L and 0.001175 g/L | 0.03696 mM and 0.01957 mM | 0.01232 mM and 0.006522 mM | 0.001436 g/L and 0.0001305 g/L and 0.0006527 g/L | 0.02391 mM and 0.002174 mM and 0.01087 mM | 0.003986 mM and 0.0003623 mM and 0.001812 mM | 0.007868 g/L and 0.006091 g/L and 0.003807 g/L | 0.131 mM and 0.1014 mM and 0.0634 mM | 0.0262 mM and 0.02029 mM and 0.01268 mM | 0.00248 g/L and 0.0003916 g/L | 0.0413 mM and 0.006522 mM | 0.01377 mM and 0.002174 mM and 0.003623 mM | mM normalized to enzyme concentration (PA1409): 34.0974 mM and 33.8331 mM; acetate released, g/l (LpApaH (3)): 0.003439 g/L and 0.00291 g/L; acetate released, mM (LpApaH (3)): 0.05727 mM and 0.04846 mM; mM normalized to enzyme concentration (LpApaH (3)): 0.02863 mM and 0.02423 mM; acetate released, g/l (LcApaH (3)): 0.00344 g/L; acetate released, mM (LcApaH (3)): 0.06 mM; mM normalized to enzyme concentration (LcApaH (3)): 0.06 mM
